Biological target: T1, recombinant His-tag Y220C p53 DBD protein (Homo sapiens, UniProt P04637, Y220C)
T1 construct: recombinant His-tag Y220C p53 DBD protein (amino acids #˜94-312)
Assay: In vitro DNA binding activity assay (TR-FRET): binding of His-tag Y220C p53 DBD to biotin-labeled consensus DNA
Format: biochemical
Conditions: SC150 = concentration to increase DNA binding by […], His-tag Y220C p53 DBD, biotin-labeled consensus DNA

Y220C SC150 (μM)	SMILES
* (* = 0 μM ≤ SC150 < 0.1 μM)	CN(C)CC1(n2ccc(C(=O)NCc3nc(-c4cc5c(N[C@@H]6CCN(C)C[C@@H]6F)cccc5n4CC(F)(F)F)no3)c2)CC1 [Compound 482B, 1-{1-[(dimethylamino)methyl]cyclopropyl}-N-{[3-(4-{[(3S,4R)-3-fluoro-1-methylpiperidin-4-yl]amino}-1-(2,2,2-trifluoroethyl)-1H-indol-2-yl)-1,2,4-oxadiazol-5-yl]methyl}-1H-pyrrole-3-carboxamide]
* (* = 0 μM ≤ SC150 < 0.1 μM)	COCC1(c2ccc(C(=O)NCc3nc(-c4cc5c(N[C@@H]6CCN(C)C[C@@H]6F)cccc5n4CC(F)(F)F)no3)s2)CC1 [Compound 483B, N-{[3-(4-{[(3S,4R)-3-fluoro-1-methylpiperidin-4-yl]amino}-1-(2,2,2-trifluoroethyl)-1H-indol-2-yl)-1,2,4-oxadiazol-5-yl]methyl}-5-[1-(methoxymethyl)cyclopropyl]thiophene-2-carboxamide]
* (* = 0 μM ≤ SC150 < 0.1 μM)	CN1CC[C@@H](Nc2cccc3c2cc(-c2noc(CNC(=O)c4c[nH]c(C(C)(C)C)c4)n2)n3CC(F)(F)F)[C@@H](F)C1 [Compound 484B, 5-tert-butyl-N-{[3-(4-{1[(3S,4R)-3-fluoro-1-methylpiperidin-4-yl]amino}-1-(2,2,2-trifluoroethyl)-1H-indol-2-yl)-1,2,4-oxadiazol-5-yl]methyl}-1H-pyrrole-3-carboxamide]
* (* = 0 μM ≤ SC150 < 0.1 μM)	COCC(C)(C)c1cc(C(=O)NCc2nc(-c3cc4c(N[C@@H]5CCN(C)C[C@@H]5F)cccc4n3CC(F)(F)F)no2)cs1 [Compound 485B, N-{[3-(4-{1[(3S,4R)-3-fluoro-1-methylpiperidin-4-yl]amino}-1-(2,2,2-trifluoroethyl)-1H-indol-2-yl)-1,2,4-oxadiazol-5-yl]methyl}-5-(1-methoxy-2-methylpropan-2-yl)thiophene-3-carboxamide]
* (* = 0 μM ≤ SC150 < 0.1 μM)	COCC1(c2cc(C(=O)NCc3nc(-c4cc5c(N[C@@H]6CCN(C)C[C@@H]6F)cccc5n4CC(F)(F)F)no3)cs2)CC1 [Compound 488B, N-{[3-(4-{[(3S,4R)-3-fluoro-1-methylpiperidin-4-yl]amino}-1-(2,2,2-trifluoroethyl)-1H-indol-2-yl)-1,2,4-oxadiazol-5-yl]methyl}-5-[1-(methoxymethyl)cyclopropyl]thiophene-3-carboxamide]
* (* = 0 μM ≤ SC150 < 0.1 μM)	COC(C)(C)c1cc(C(=O)NCc2nc(-c3cc4c(N[C@@H]5CCNC[C@@H]5F)cccc4n3CC(F)(F)F)no2)cs1 [Compound 489B, N-{[3-(4-{[(3S,4R)-3-fluoropiperidin-4-yl]amino}-1-(2,2,2-trifluoroethyl)-1H-indol-2-yl)-1,2,4-oxadiazol-5-yl]methyl}-5-(2-methoxypropan-2-yl)thiophene-3-carboxamide]
* (* = 0 μM ≤ SC150 < 0.1 μM)	COC(C)(C)c1cc(C(=O)NCc2nc(-c3cc4c(N[C@H]5CCNC[C@H]5F)cccc4n3CC(F)(F)F)no2)cs1 [Compound 490B, N-{[3-(4-{[(3R,4S)-3-fluoropiperidin-4-yl]amino}-1-(2,2,2-trifluoroethyl)-1H-indol-2-yl)-1,2,4-oxadiazol-5-yl]methyl}-5-(2-methoxypropan-2-yl)thiophene-3-carboxamide]
* (* = 0 μM ≤ SC150 < 0.1 μM)	CC(C)(C)n1ccc(C(=O)NCc2nc(-c3cc4c(N[C@H]5CCOC[C@H]5F)cccc4n3CC(F)(F)F)no2)c1 [Compound 492B, 1-tert-butyl-N-{[3-(4-{[(3S,4S)-3-fluorooxan-4-yl]amino}-1-(2,2,2-trifluoroethyl)-1H-indol-2-yl)-1,2,4-oxadiazol-5-yl]methyl}-1H-pyrrole-3-carboxamide]
* (* = 0 μM ≤ SC150 < 0.1 μM)	CC(C)(C)n1ccc(C(=O)NCc2nc(-c3cc4c(N[C@@H]5CCOC[C@@H]5F)cccc4n3CC(F)(F)F)no2)c1 [Compound 493B, 1-tert-butyl-N-{[3-(4-{[(3R,4R)-3-fluorooxan-4-yl]amino}-1-(2,2,2-trifluoroethyl)-1H-indol-2-yl)-1,2,4-oxadiazol-5-yl]methyl}-1H-pyrrole-3-carboxamide]
* (* = 0 μM ≤ SC150 < 0.1 μM)	COCC1(n2ccc(C(=O)NCc3nc(-c4cc5c(N[C@@H]6CCOC[C@@H]6F)cccc5n4CC(F)(F)F)no3)c2)CC1 [Compound 495B, N-{[3-(4-{[(3R,4R)-3-fluorooxan-4-yl]amino}-1-(2,2,2-trifluoroethyl)-1H-indol-2-yl)-1,2,4-oxadiazol-5-yl]methyl}-1-[1-(methoxymethyl)cyclopropyl]-1H-pyrrole-3-carboxamide]
* (* = 0 μM ≤ SC150 < 0.1 μM)	COCC1(n2ccc(C(=O)NCc3nc(-c4cc5c(N[C@H]6CCOC[C@H]6F)cccc5n4CC(F)(F)F)no3)c2)CC1 [Compound 496B, N-{[3-(4-{[(3S,4S)-3-fluorooxan-4-yl]amino}-1-(2,2,2-trifluoroethyl)-1H-indol-2-yl)-1,2,4-oxadiazol-5-yl]methyl}-1-[1-(methoxymethyl)cyclopropyl]-1H-pyrrole-3-carboxamide]
* (* = 0 μM ≤ SC150 < 0.1 μM)	CC(C)(C)n1cc(C(=O)NCc2nc(-c3cc4c(N[C@@H]5CCOC[C@@H]5F)cccc4n3CC(F)(F)F)no2)cn1 [Compound 497B, 1-tert-butyl-N-{[3-(4-{[(3R,4R)-3-fluorooxan-4-yl]amino}-1-(2,2,2-trifluoroethyl)-1H-indol-2-yl)-1,2,4-oxadiazol-5-yl]methyl}-1H-pyrazole-4-carboxamide]
* (* = 0 μM ≤ SC150 < 0.1 μM)	CC(C)(C)n1cc(C(=O)NCc2nc(-c3cc4c(N[C@H]5CCOC[C@H]5F)cccc4n3CC(F)(F)F)no2)cn1 [Compound 498B, 1-tert-butyl-N-{[3-(4-{[(3S,4S)-3-fluorooxan-4-yl]amino}-1-(2,2,2-trifluoroethyl)-1H-indol-2-yl)-1,2,4-oxadiazol-5-yl]methyl}-1H-pyrazole-4-carboxamide]
* (* = 0 μM ≤ SC150 < 0.1 μM)	CN1CC[C@@H](Nc2cccc3c2cc(-c2noc(CNC(=O)c4ccc(C(C)(C)C)nc4)n2)n3CC(F)(F)F)[C@@H](F)C1 [Compound 501B, 6-tert-butyl-N-{[3-(4-{[(3S,4R)-3-fluoro-1-methylpiperidin-4-yl]amino}-1-(2,2,2-trifluoroethyl)-1H-indol-2-yl)-1,2,4-oxadiazol-5-yl]methyl}pyridine-3-carboxamide]
* (* = 0 μM ≤ SC150 < 0.1 μM)	CC(C)(C)n1ccc(C(=O)NCc2nc(-c3cc4c(N[C@@H]5CCNC[C@@H]5F)cccc4n3CC(F)(F)F)no2)c1 [Compound 502B, 1-tert-butyl-N-{[3-(4-{[(3S,4R)-3-fluoropiperidin-4-yl]amino}-1-(2,2,2-trifluoroethyl)-1H-indol-2-yl)-1,2,4-oxadiazol-5-yl]methyl}-1H-pyrrole-3-carboxamide]
* (* = 0 μM ≤ SC150 < 0.1 μM)	COCC1(c2ccc(C(=O)NCc3nc(-c4cc5c(N[C@@H]6CCNC[C@@H]6F)cccc5n4CC(F)(F)F)no3)s2)CC1 [Compound 503B, N-{[3-(4-{[(3S,4R)-3-fluoropiperidin-4-yl]amino}-1-(2,2,2-trifluoroethyl)-1H-indol-2-yl)-1,2,4-oxadiazol-5-yl]methyl)-5-[1-(methoxymethyl)cyclopropyl]thiophene-2-carboxamide]
* (* = 0 μM ≤ SC150 < 0.1 μM)	COCC1(n2ccc(C(=O)NCc3nc(-c4cc5c(N[C@@H]6CCN(C)C[C@@H]6C)cccc5n4CC(F)(F)F)no3)c2)CC1 [Compound 504B, N-{[3-(4-{[(3S,4R)-1,3-dimethylpiperidin-4-yl]amino}-1-(2,2,2-trifluoroethyl)-1H-indol-2-yl)-1,2,4-oxadiazol-5-yl]methyl}-1-[1-(methoxymethyl)cyclopropyl]-1H-pyrrole-3-carboxamide]
* (* = 0 μM ≤ SC150 < 0.1 μM)	COCC1(n2ccc(C(=O)NCc3nc(-c4cc5c(N[C@H]6CCN(C)C[C@H]6C)cccc5n4CC(F)(F)F)no3)c2)CC1 [Compound 505B, N-{[3-(4-{[(3R,4S)-1,3-dimethylpiperidin-4-yl]amino}-1-(2,2,2-trifluoroethyl)-1H-indol-2-yl)-1,2,4-oxadiazol-5-yl]methyl}-1-[1-(methoxymethyl)cyclopropyl]-1H-pyrrole-3-carboxamide]
* (* = 0 μM ≤ SC150 < 0.1 μM)	COCC1(c2cc(C(=O)NCc3nc(-c4cc5c(N[C@@H]6CCOC[C@@H]6F)cccc5n4CC(F)(F)F)no3)cs2)CC1 [Compound 507B, N-{[3-(4-{[(3R,4R)-3-fluorooxan-4-yl]amino}-1-(2,2,2-trifluoroethyl)-1H-indol-2-yl)-1,2,4-oxadiazol-5-yl]methyl}-5-[1-(methoxymethyl)cyclopropyl]thiophene-3-carboxamide]
* (* = 0 μM ≤ SC150 < 0.1 μM)	COCC(C)(C)c1cc(C(=O)NCc2nc(-c3cc4c(N[C@@H]5CCOC[C@@H]5F)cccc4n3CC(F)(F)F)no2)cs1 [Compound 508B, N-{[3-(4-{[(3R,4R)-3-fluorooxan-4-yl]amino}-1-(2,2,2-trifluoroethyl)-1H-indol-2-yl)-1,2,4-oxadiazol-5-yl]methyl}-5-(1-methoxy-2-methylpropan-2-yl)thiophene-3-carboxamide]

SMILES	Y220C SC150 (μM)
CN1CC[C@@H](Nc2cccc3c2cc(-c2noc(CNC(=O)c4ccc(C5(CO)CC5)s4)n2)n3CC(F)(F)F)[C@@H](F)C1 [Compound 486B, N-{[3-(4-{[(3S,4R)-3-fluoro-1-methylpiperidin-4-yl]amino}-1-(2,2,2-trifluoroethyl)-1H-indol-2-yl)-1,2,4-oxadiazol-5-yl]methyl}-5-[1-(hydroxymethyl)cyclopropyl]thiophene-2-carboxamide]	* (* = 0 μM ≤ SC150 < 0.1 μM)
CN1CC[C@@H](Nc2cccc3c2cc(-c2noc(CNC(=O)c4csc(C5(CO)CC5)c4)n2)n3CC(F)(F)F)[C@@H](F)C1 [Compound 487B, N-{[3-(4-{[(3S,4R)-3-fluoro-1-methylpiperidin-4-yl]amino}-1-(2,2,2-trifluoroethyl)-1H-indol-2-yl)-1,2,4-oxadiazol-5-yl]methyl}-5-[1-(hydroxymethyl)cyclopropyl]thiophene-3-carboxamide]	* (* = 0 μM ≤ SC150 < 0.1 μM)

From patent US11807644B2 (PMV Pharmaceuticals, Inc., priority 2020, dated 2023)
